Consider 13 molecules from PubChem BioAssay (NCI).

Structures are written as SMILES.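 Five concentrations, 48 hours, 96-well plates. GI50 = concentration required for 50% inhibition of growth. TGI is the concentration that stops growth completely.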 Where only a bound is given, the exact number is not on record here.

Common to all, as to experiment: NCI anticancer screen, dose series, 48 h
Experiment [1] deals with UACC-257 melanoma.
Experiment [2] deals with SN12C renal.
Experiment [3] relates to KM12 colon.
Experiment [4] has as its system MALME-3M melanoma.
The test system of experiment [5] is NCI-H522 lung.
Experiment [6] has as its system SK-MEL-28 melanoma.
The subject of experiment [7] is U251 CNS.
Experiment [8] relates to BT-549 breast.
In experiment [9] the test system is DU-145 prostate.
In experiment [10] the test system is RXF 393 renal.

In the case of `Cc1cc(O)c(C(=O)CC2(O)C(=O)Nc3c(Cl)cc(Cl)cc32)c(=O)o1` (configuration not stated), the TGI in experiment [1], in experiment [2], in experiment [3], in [4], in [5] and in experiment [6] was above 100 µM throughout. The same molecule showed a TGI in experiment [7] above 100 µM.
Consider `Nc1nc(Nc2ccc3c(c2)CC[C@@H](N2CCCC2)CC3)nn1-c1cc2c(nn1)-c1ccccc1CCC2`, for which the GI50 is 1.89 µM in [1]; 1.6 µM in experiment [8]; 1.83 µM in experiment [3]; 1.35 µM in [9]; 1.75 µM in experiment [5]; 1.77 µM in experiment [6]. The TGI in experiment [1] was determined as 3.66 µM; in [8] it was 3.36 µM; in experiment [3], 3.71 µM; in experiment [9], 3 µM; in experiment [5], 3.79 µM; in experiment [6], 3.27 µM.
For the molecule `Cn1nc(-c2ccccc2)c(N=[N+]=[N-])cc1=O`, the TGI in experiment [1], in [2], in [10], in experiment [3], in [4] and in [5] was above 100 µM in each case. In addition, the TGI in [6] and in [7] was above 100 µM throughout.
For the molecule `O=C(O)c1c2c(c(C(=O)O)c3ccccc13)-c1ccccc1-2`, the TGI in [1] was above 100 µM; in [2], above 100 µM; in experiment [10], 66.9 µM; in experiment [3], above 100 µM; in experiment [4] it was above 100 µM; in [5], above 100 µM. Moreover, the TGI in [6] and in experiment [7] was above 100 µM throughout.
With `N/N=C(\CC1OC(=O)c2ccccc21)c1ccco1` (configuration not stated), the TGI in [1], in experiment [10], in experiment [3], in [4], in experiment [5] and in [6] was above 100 µM each time.
In the case of `COc1ccc(C(=O)C(c2ccc(OC)cc2)C2(O)C(=O)Nc3c(C)cc(Cl)cc32)cc1` (configuration not stated), the TGI in experiment [1], in experiment [2], in [10], in experiment [3], in [4] and in experiment [5] was above 100 µM each time. Also, the TGI in [6] and in experiment [7] was above 100 µM throughout.
For the molecule `COc1ccc(C2S/C(=C\c3cc(OC)c(OC)c(OC)c3)C(=O)N2NC(=O)Cc2ccccc2)cc1` (configuration not stated), the TGI in [1], in [2], in experiment [10], in [3], in experiment [4] and in [5] was above 100 µM each time. The TGI in experiment [6] and in experiment [7] was above 100 µM throughout.
As to `Cc1cccc(C)c1NC(=O)CCCC(=O)CC(=O)/C=C/c1ccccc1`, the TGI in experiment [1], in experiment [2], in [10], in experiment [3], in experiment [4] and in [5] was above 100 µM throughout. Besides, the TGI in experiment [6] and in experiment [7] was above 100 µM each time.
For `C[C@@H]1O[C@@H](O[C@@H]2[C@@H](O)[C@H](OCCc3ccc(O)c(O)c3)O[C@H](COC(=O)/C=C/c3ccc(O)c(O)c3)[C@H]2O)[C@H](O)[C@H](O)[C@H]1O`, the GI50 is 62.9 µM in [1]; 68.7 µM in [2]; 12.8 µM in experiment [8]; above 100 µM in experiment [3]; 32.6 µM in experiment [9]; above 100 µM in experiment [5]. Moreover, the GI50 was above 100 µM in [6] and 49.2 µM in experiment [7]. Besides, the TGI was above 100 µM in experiment [1]; above 100 µM in [2]; 30 µM in experiment [8]; above 100 µM in experiment [3]; above 100 µM in experiment [9]; above 100 µM in experiment [5]. The TGI in experiment [6] and in experiment [7] was above 100 µM throughout.
In the case of `Cc1nc2c(=O)[nH]c(=O)n(C)c2[nH]c1=O`, the TGI in [1], in experiment [2], in [10], in experiment [3], in [4] and in experiment [5] was above 100 µM in each case. The TGI in experiment [6] and in [7] was above 100 µM in each case.
With `c1nc2cscc2c2cscc12`, the TGI in [1], in [2], in [10], in experiment [3], in experiment [4] and in experiment [5] was above 100 µM throughout. The TGI in experiment [6] and in experiment [7] was above 100 µM in each case.
On to `N#Cc1ccccc1NC(=O)/C(=N\NC(=O)c1ccncc1)C(c1cnc2ccc([N+](=O)[O-])cc2n1)[N+](=O)[O-]` (configuration not stated), for which the TGI in experiment [1], in experiment [2], in [8], in experiment [10], in experiment [3] and in experiment [4] was above 100 µM throughout. The TGI in experiment [5], in experiment [6] and in experiment [7] was above 100 µM each time.
As for `COC(=O)NC/C=C\c1nc(CC/C=C\C(=O)OC2CC3CC(=O)O[C@H](/C=C/CC(C)C)C[C@H]4CCC(C)C(C[C@H](OC)CC(C2)O3)O4)co1` (some centres not stated), the GI50 in [1] is above 100 µM; in [2], below 0.01 µM; in experiment [8], 0.016 µM; in [3] it was 4.25 µM; in experiment [4], 17.1 µM; in [9] it was 1.54 µM. For the same molecule, the GI50 in [6] is 12.1 µM; in experiment [7] it was 1.42 µM. In addition, the TGI is above 100 µM in experiment [1]; 28.8 µM in experiment [2]; 2.95 µM in [8]; above 100 µM in experiment [3]; 45.1 µM in experiment [4]; above 100 µM in experiment [9]. Also, the TGI in [6] and in [7] was above 100 µM each time.
